Values of other authors in patent publication US20260207579A1, “VITAMIN B SUPPLEMENTATION TO TREAT PITUITARY PARS INTERMEDIA DYSFUNCTION (PPID) IN EQUIDS” (MARS INCORPORATED, priority 2022, published 2026).
Where a name gives a salt, the structure may show the parent alone. Values belong to the compound of their own block, whether it stands above or below them.

Tests used:
[1] = system: brain cells; conditions: species other than the horse
[2] = 3 g/day, mares, mean BW of ~500 kg
[3] = system: horses
[4] = 5 g/day, horses
[5] = system: adult Thoroughbred horses; conditions: 3 g/day for 6 weeks, exercising adult Thoroughbred horses likely around 500 kg
[6] = system: dopamine production; conditions: over the long term, mice
[7] = system: PPID
[8] = system: dementia; conditions: humans with dementia and concurrent vitamin B12 deficiency

bioavailability of NAD+ precursors in the follicular fluid [2]: increased
plasma concentrations of NAD+ precursors [2]: no apparent increase
Compound: O=C(O)c1cccnc1 [NA, nicotinic acid]
intracellular NAD+ levels [1]: increase

Compound: N[C@@H](Cc1c[nH]c2ccccc12)C(=O)O [Tryptophan, tryptophan]
behavioural effects [3]: both excitatory and sedative effects
toxicity ([3]; high doses): hemolytic anemia and symptoms of respiratory distress

plasma and urine concentrations of NAD+ precursors [4]: increases
Compound: O=C(O)c1cccnc1 [niacin]
adverse effects [5]: no measured adverse effects
benefits as putative ergogenic aid [5]: no apparent benefits

Compound: NC(=O)c1ccc[n+]([C@@H]2O[C@H](CO)[C@@H](O)[C@H]2O)c1 [nicotinamide riboside]
dopamine production [6]: may downregulate dopamine production

Compound: CCCN1C[C@H](CSC)C[C@@H]2c3cccc4[nH]cc(c34)C[C@H]21 [pergolide mesylate]
clinical outcome in PPID [7]: clinical improvement

Compound: vitamin B12
effect of supplementation [8]: beneficial
